Test [1] deals with Escherichia coli (E. coli) BAS849. The test can be described thus: Antibacterial activity, microbroth dilution MIC (Table 1). Particulars: microbroth dilution, super sensitive Gram-negative E. coli BAS849, read-out: MIC, BAS849. Format: cell-based. In short, it runs like this: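 Lowest concentration stopping macroscopically visible growth under test conditions, by broth microdilution, defines the MIC (μg/mL).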
Background: In broth dilution the organism is exposed to a series of concentrations in liquid medium.

For test [2], the system named is Staphylococcus aureus (S. aureus) 29213. Described as above. The format is cell-based. Particulars: microbroth dilution, Gram-positive S. aureus 29213, read-out: MIC, 29213. In short, it runs like this:
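Values are MICs (μg/mL): the smallest drug amount at which macroscopically visible bacterial growth is absent under assay conditions, from a microdilution method in broth.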

Another test deals with E. coli 25922. The description is as above. The format is cell-based, Escherichia coli. Particulars: Escherichia coli; microbroth dilution; control Gram-negative E. coli 25922 strain; read-out: MIC, 25922. In short, it runs like this: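 Broth microdilution against S. aureus 29213, E. coli 25922 and hypersensitive E. coli BAS849. MIC in μg/mL is the lowest drug concentration preventing macroscopically visible growth under test conditions.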

In the next test the test system is E. coli LZ3111. The experiment in a line: Antibacterial activity, MIC, quinolone resistant strain (Table 2). Format: cell-based. Particulars: Escherichia coli, LZ3111, read-out: MIC LZ3111. An outline of the steps:
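Lowest concentration giving no macroscopically visible growth was taken as the MIC (μg/mL) after microbroth dilution testing.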

The subject of another test is E. coli ELZ4000. The test can be described thus: Antibacterial activity, MIC, multi-drug resistant clinical isolate (Table 3). The format is cell-based. Conditions: Escherichia coli, ELZ4000, read-out: MIC ELZ4000. The source says:
(§1) The antibacterial activity from a microbroth dilution method may be presented as the minimum inhibitory concentration (MIC in μg/mL). The MIC value is the lowest concentration of drug which prevents macroscopically visible growth under test conditions.
(§2) Antibacterial activity of test compounds against E. coli ELZ4000 and E. coli ELZ4251 multi-drug resistant clinical isolates is shown in Table 3.

The subject of another test is E. coli ELZ4251. The test is described as above. Conditions: Escherichia coli. Format: cell-based.
Text: as §1, §2

The test system of test [3] is Pseudomonas aeruginosa (P. aeruginosa) 27853. The experiment in a line: Antibacterial activity, MIC (Table 5). Format: cell-based. Particulars: P. aeruginosa 27853, read-out: MIC, 27853. An outline of the steps: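 MIC in μg/mL from broth microdilution; endpoint is the lowest drug level giving no visible growth.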

Values after ≈ are worked out from the molar mass of the structure shown.

As usually defined, the MIC is the lowest concentration that inhibits growth of the organism. Consider `CCc1c(-c2ccc3ncccc3c2)[nH]c(=O)c(C(=O)O)c1O` [Cpd 20, 5-ethyl-4-hydroxy-2-oxo-6-(quinolin-6-yl)-1,2-dihydropyridine-3-carboxylic acid], for which the MIC lay in the range of 1 to 3.5 µg/mL (≈ 3.22 to 11.3 µM) in test [1]; 12.5 to 150 µg/mL (≈ 40.3 to 483 µM) in test [2]; 12.5 to 150 µg/mL (≈ 40.3 to 483 µM) in the test on E. coli 25922; 3.5 to 12.5 µg/mL (≈ 11.3 to 40.3 µM) in the test on E. coli LZ3111; 12.5 to 150 µg/mL (≈ 40.3 to 483 µM) in the test on E. coli ELZ4000; 3.5 to 12.5 µg/mL (≈ 11.3 to 40.3 µM) with E. coli ELZ4251. Moreover, the MIC in test [3] lay in the range of 12.5 to 150 µg/mL (≈ 40.3 to 483 µM).

With `CCc1c(-c2ccc3c(c2)cc(CN2CC4CC2CN4)n3C)[nH]c(=O)c(C(=O)O)c1O` (stereo not shown) [Cpd 182, 6-(2-(2,5-diazabicyclo[2.2.1]heptan-2-ylmethyl)-1-methyl-1H-indol-5-yl)-5-ethyl-4-hydroxy-2-oxo-1,2-dihydropyridine-3-carboxylic acid], the MIC lay within 1 to 3.5 µg/mL (≈ 2.37 to 8.28 µM) in test [1]; 12.5 to 150 µg/mL (≈ 29.6 to 355 µM) in test [2]; 12.5 to 150 µg/mL (≈ 29.6 to 355 µM) in the test with E. coli 25922; 3.5 to 12.5 µg/mL (≈ 8.28 to 29.6 µM) with E. coli LZ3111; 12.5 to 150 µg/mL (≈ 29.6 to 355 µM) in the test on E. coli ELZ4000; 12.5 to 150 µg/mL (≈ 29.6 to 355 µM) in the test on E. coli ELZ4251. The minimal inhibitory concentration (MIC) in test [3] fell in the range of 12.5 to 150 µg/mL (≈ 29.6 to 355 µM).

On to `CCc1c(-c2ccc3c(c2)cc(CN(C)C2CCCC2)n3C)[nH]c(=O)c(C(=O)O)c1O.Cl` [Cpd 211, 6-(2-((cyclopentyl(methyl)amino)methyl)-1-methyl-1H-indol-5-yl)-5-ethyl-4-hydroxy-2-oxo-1,2-dihydropyridine-3-carboxylic acid hydrochloride], for which the MIC in test [1] is under 1 µg/mL; in test [2] it was 3.5 to 12.5 µg/mL; in the test on E. coli 25922 it was 1 to 3.5 µg/mL; in the test with E. coli LZ3111 it was 3.5 to 12.5 µg/mL; in the test with E. coli ELZ4000, 12.5 to 150 µg/mL; in the test on E. coli ELZ4251, 12.5 to 150 µg/mL. For the same compound, in test [3], the MIC was 12.5 to 150 µg/mL.

With `CCc1c(-c2ccc3c(c2)cc(CNCc2ccccn2)n3C)[nH]c(=O)c(C(=O)O)c1O.Cl` [Cpd 219, 5-ethyl-4-hydroxy-6-(1-methyl-2-((pyridin-2-ylmethylamino)methyl)-1H-indol-5-yl)-2-oxo-1,2-dihydropyridine-3-carboxylic acid hydrochloride], the MIC in test [1] is under 1 µg/mL; in test [2], 1 to 3.5 µg/mL; in the test with E. coli 25922, 1 to 3.5 µg/mL; with E. coli LZ3111, 3.5 to 12.5 µg/mL; in the test with E. coli ELZ4000 it was 12.5 to 150 µg/mL; in the test on E. coli ELZ4251 it was 12.5 to 150 µg/mL. Besides, the MIC in test [3] was 12.5 to 150 µg/mL.

For the compound `CCc1c(-c2ccc3c(c2)cc(CNCC2CCOCC2)n3C)[nH]c(=O)c(C(=O)O)c1O.Cl` [Cpd 227, 5-ethyl-4-hydroxy-6-(1-methyl-2-(((tetrahydro-2H-pyran-4-yl)methylamino)methyl)-1H-indol-5-yl)-2-oxo-1,2-dihydropyridine-3-carboxylic acid hydrochloride], the MIC in test [1] is under 1 µg/mL; in test [2], 3.5 to 12.5 µg/mL; in the test on E. coli 25922, 1 to 3.5 µg/mL; in the test on E. coli LZ3111 it was 12.5 to 150 µg/mL; with E. coli ELZ4000, 12.5 to 150 µg/mL; in the test on E. coli ELZ4251, 12.5 to 150 µg/mL. Besides, the MIC in test [3] is 12.5 to 150 µg/mL.

In the case of `CCc1c(-c2ccc3c(c2)cc(CN2CCCNCC2)n3C)[nH]c(=O)c(C(=O)O)c1O.Cl.Cl` [Cpd 239, 6-(2-((1,4-diazepan-1-yl)methyl)-1-methyl-1H-indol-5-yl)-5-ethyl-4-hydroxy-2-oxo-1,2-dihydropyridine-3-carboxylic acid dihydrochloride], the minimum inhibitory concentration (MIC) was in the range of 1 to 3.5 µg/mL in test [1]; 12.5 to 150 µg/mL in test [2]; 3.5 to 12.5 µg/mL in the test on E. coli 25922; 3.5 to 12.5 µg/mL in the test with E. coli LZ3111; 12.5 to 150 µg/mL in the test on E. coli ELZ4000; 3.5 to 12.5 µg/mL in the test on E. coli ELZ4251. In addition, the MIC in test [3] was 12.5 to 150 µg/mL.

Take `CCc1c(-c2ccc3c(c2)cc(CNC2CCCCC2)n3C)[nH]c(=O)c(C(=O)O)c1O.Cl` [Cpd 241, 6-(2-((cyclohexylamino)methyl)-1-methyl-1H-indol-5-yl)-5-ethyl-4-hydroxy-2-oxo-1,2-dihydropyridine-3-carboxylic acid hydrochloride]: the MIC in test [1] is under 1 µg/mL; in test [2] it was 3.5 to 12.5 µg/mL; with E. coli 25922 it was under 1 µg/mL; in the test with E. coli LZ3111 it was 3.5 to 12.5 µg/mL; in the test on E. coli ELZ4000, 12.5 to 150 µg/mL; against E. coli ELZ4251, 3.5 to 12.5 µg/mL. Moreover, the MIC in test [3] fell in the range of 12.5 to 150 µg/mL.
